Where a name gives a salt, the structure may show the parent alone.
How the values were obtained:
MAO-A = target: T1, MAO-A (Rattus norvegicus, UniProt P21396); assay: MAO-A inhibition activity with rat forebrain (14C-5-HT substrate); assay type: biochemical, rat (male Wistar); conditions: for inhibition at 0.1 µM / Inhibiting activity MAO-A (% at 10^-7 M): 10^-7 M; for inhibition at 0.1 µM: read-out: Inhibiting activity MAO-A (% at 10^-7 M); for IC50: 5-HT 200 μM, read-out: Inhibiting activity MAO-A, IC50
T1 construct: suspension of 1 part by volume of the forebrains of male Wistar rats; from tissue; host or cells: forebrain of male Wistar rats, suspension in potassium phosphate buffer
T1 sequence (P21396 1-526): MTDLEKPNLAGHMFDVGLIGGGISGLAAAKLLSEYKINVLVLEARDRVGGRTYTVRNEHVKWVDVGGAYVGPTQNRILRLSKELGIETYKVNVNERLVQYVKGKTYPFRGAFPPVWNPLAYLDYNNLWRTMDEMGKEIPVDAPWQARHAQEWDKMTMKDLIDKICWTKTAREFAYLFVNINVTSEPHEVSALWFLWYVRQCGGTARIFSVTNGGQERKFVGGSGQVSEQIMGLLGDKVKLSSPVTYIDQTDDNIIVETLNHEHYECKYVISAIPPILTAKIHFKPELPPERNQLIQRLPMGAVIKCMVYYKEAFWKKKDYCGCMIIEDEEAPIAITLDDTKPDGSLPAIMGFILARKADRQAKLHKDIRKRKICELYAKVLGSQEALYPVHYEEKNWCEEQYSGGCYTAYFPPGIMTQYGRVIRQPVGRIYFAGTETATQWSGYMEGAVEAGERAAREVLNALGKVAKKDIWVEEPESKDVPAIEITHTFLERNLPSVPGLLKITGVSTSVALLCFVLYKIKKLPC
Protocol: (§1) Determination of MAO inhibition activity with the use of rat forebrain:
(§2) The MAO inhibition activity was determined by a method of Prada et al. (J. Pharmacol. Exp. Ther., 248, 400-414 (1989)).
(§3) The enzyme reaction was conducted in 300 μl of a solution having the following composition:
(§4) ^14 C-labelled enzyme substrate
(§5) The enzyme source used was a suspension of 1 part by volume of the forebrains of male Wistar rats in 5 parts by volume of a 0.1M potassium phosphate buffer (pH 7.4). The enzyme source was mixed with the test compound and the mixture was prewarmed at 37° C. for 10 min. Then the enzyme substrate was added thereto to initiate the enzyme reaction. After 10 min, 200 μl of 2N hydrochloric acid was added to terminate the reaction.
(§6) As the substrates for MAO-A and MAO-B, 5-HT (serotonin) and PEA (β-phenethylamine) each labelled with ^14 C were used, respectively. The specific radioactivities of 5-HT and PEA were regulated to 11.1 MBq/mmol and 29.6 MBq/mmol, respectively, and the concentrations of them were 200 μM and 20 μM, respectively, in the reaction.
(§7) The test compound was dissolved in distilled water so that an intended concentration could be obtained in the enzyme reaction. When the test compound was insoluble in water, it was dissolved in dimethyl sulfoxide to obtain a 10% solution.
(§8) Diethyl ether and n-heptane were used as […], respectively. After the termination of the enzyme reaction, 3 ml of the solvent was added to the reaction mixture and shaken for 10 min. After centrifugation at 3,000 rpm for about 10 min, the lower aqueous layer was frozen in dry ice/acetone. The upper organic layer was recovered by decantation and the radioactivity thereof was determined with a liquid scintillation counter.
(§9) The inhibiting activities of the test compounds against MAO A and MAO B are given at the concentrations of 10^-7 M and 10^-6 M or by IC50 values.

MAO-B = target: T2, MAO-B (Rattus norvegicus, UniProt P19643); assay: MAO-B inhibition activity with rat forebrain (14C-PEA substrate); assay type: biochemical, rat (male Wistar); conditions: for inhibition at 1 µM / Inhibiting activity MAO-B (% at 10^-6 M): 10^-6 M; for inhibition at 1 µM: read-out: Inhibiting activity MAO-B (% at 10^-6 M); for IC50: PEA 20 μM, read-out: Inhibiting activity MAO-B, IC50
T2 construct: suspension of 1 part by volume of the forebrains of male Wistar rats; from tissue; host or cells: forebrain of male Wistar rats, suspension in potassium phosphate buffer
T2 sequence (P19643 1-520): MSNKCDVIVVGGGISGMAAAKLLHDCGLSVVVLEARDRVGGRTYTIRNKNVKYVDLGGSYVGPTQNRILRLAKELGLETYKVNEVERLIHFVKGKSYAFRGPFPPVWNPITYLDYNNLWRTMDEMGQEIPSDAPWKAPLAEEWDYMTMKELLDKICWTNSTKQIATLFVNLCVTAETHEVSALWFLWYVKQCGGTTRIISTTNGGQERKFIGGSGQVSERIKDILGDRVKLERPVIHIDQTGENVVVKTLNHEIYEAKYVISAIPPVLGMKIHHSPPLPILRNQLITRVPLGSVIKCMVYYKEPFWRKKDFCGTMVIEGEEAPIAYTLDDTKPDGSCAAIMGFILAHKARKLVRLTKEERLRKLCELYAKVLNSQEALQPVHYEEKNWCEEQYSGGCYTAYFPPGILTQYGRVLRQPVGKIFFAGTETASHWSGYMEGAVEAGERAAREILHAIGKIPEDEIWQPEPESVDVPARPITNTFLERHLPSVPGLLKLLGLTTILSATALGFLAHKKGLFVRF
Protocol: as §1, §2, §3, §4, §5, §6, §7, §8, §9

Compound	inhibition at 0.1 µM (MAO-A) [%]	inhibition at 1 µM (MAO-B) [%]	other results
COCC1CN(c2ccc3nc(COC(=O)c4ccccc4)sc3c2)C(=O)O1 (stereo not drawn) [Example 1, 3-(2-Benzoyloxymethylbenzothiazol-6-yl)-5-methoxymethyl-2-oxazolidinone]	93	15	
COCC1CN(c2ccc3nc(CO)sc3c2)C(=O)O1 (stereo not drawn) [Example 2, 3-(2-Hydroxymethylbenzothiazol-6-yl)-5-methoxymethyl-2-oxazolidinone]	64	11	
COCC1CN(c2ccc3nc(COCC#N)sc3c2)C(=O)O1 (stereo not drawn) [Example 3]		11	IC50 (MAO-A): 0.005 µM
COCC1CN(c2ccc3nc(C4CCC(=O)O4)sc3c2)C(=O)O1 (stereo not drawn) [Example 5, 3-[2-(5-Oxotetrahydrofuran-2-yl)benzothiazol-6-ul]-5methoxymethyl-2-oxazolidinone]		11	Inhibiting activity MAO-A (% at 10^-7 M) (MAO-A): 78%
COC[C@H]1CN(c2ccc3nc(C4CCC(O)O4)sc3c2)C(=O)O1 (stereo partly drawn) [Example 7]	24	10	
COCC1CN(c2ccc3nc(C(O)CC=NO)sc3c2)C(=O)O1 (stereo not drawn) [Example 8, 3-[2-(1-Hydroxy-3-hydroxyiminopropyl)benzothiazol-6-yl]-5-methoxymethyl-2-oxazolidinone]	80	13	
COC[C@H]1CN(c2ccc3nc(N4CCC(C#N)CC4)sc3c2)C(=O)O1 [Example 13, (R)-3-[2-(4-Cyanopiperidino)benzothiazol-6-yl]-5-methoxymethy]-2-oxazolidinone hydrochloride]			IC50 (MAO-A): 0.29 µM; IC50 (MAO-B): 598 µM
COCC1CN(c2ccc3nc(CCCC#N)sc3c2)C(=O)O1 (stereo not drawn) [Example 14]			IC50 (MAO-A): 0.014 µM; IC50 (MAO-B): 579 µM
COCC1CN(c2ccc3nc(CCC#N)sc3c2)C(=O)O1 (stereo not drawn) [Example 15]			IC50 (MAO-A): 0.256 µM; IC50 (MAO-B): 487 µM
N#CCCCc1nc2ccc(N3C[C@H](CO)OC3=O)cc2s1 [Example 18]			IC50 (MAO-A): 0.021 µM; IC50 (MAO-B): 930 µM
N#CCCCc1nc2ccc(N3C[C@@H](CO)OC3=O)cc2s1 [Example 19]	61	16	
COC[C@H]1CN(c2ccc3nc(CCCCC#N)sc3c2)C(=O)O1 [Example 23]			IC50 (MAO-A): 0.028 µM; IC50 (MAO-B): > 100 µM
N#CCCCCc1nc2ccc(N3C[C@H](CO)OC3=O)cc2s1 [Example 24]			IC50 (MAO-A): 0.137 µM; IC50 (MAO-B): > 100 µM
CC(C)(CCC#N)c1nc2ccc(N3C[C@H](CO)OC3=O)cc2s1 [Example 26]	73	7	
COCC1CN(c2ccc3nc(C(O)CCC#N)sc3c2)C(=O)O1 (stereo not drawn) [Example 27]			IC50 (MAO-A): 0.0067 µM; Inhibiting activity MAO-B (% at 10^-6 M) (MAO-B): 10%
COCC1CN(c2ccc3nc(N(C)CCC#N)sc3c2)C(=O)O1 (stereo not drawn) [Example 28]			IC50 (MAO-A): 0.031 µM; IC50 (MAO-B): 990 µM
CN(CCC#N)c1nc2ccc(N3CC(CO)OC3=O)cc2s1 (stereo not drawn) [Example 29]			IC50 (MAO-A): 0.019 µM; IC50 (MAO-B): 2240 µM
COCC1CN(c2ccc3nc(C(O)CCCO)sc3c2)C(=O)O1 (stereo not drawn) [Example 30]	42	15	
N#CCCNc1nc2ccc(N3CC(CO)OC3=O)cc2s1 (stereo not drawn) [Example 33]	5	10	
COCC1CN(c2ccc3nc(C4CCC(=O)O4)sc3c2)C(=O)O1 (stereo not drawn) [Example 34]			Inhibiting activity MAO-A (% at 10^-7 M) (MAO-A): 11%; Inhibiting activity MAO-B (% at 10^-6 M) (MAO-B): 8%
COCC1CN(c2ccc3nc(C(CCC#N)N4CCCC4)sc3c2)C(=O)O1 (stereo not drawn) [Example 40]	8	6	
N#CC1CCN(c2nc3ccc(N4CC(CO)OC4=O)cc3s2)CC1 (stereo not drawn) [Example 42]	63	5	
COCC1CN(c2ccc3sc(C)nc3c2)C(=O)O1 (stereo not drawn) [Example 44]	6	4	
COCC1CN(c2ccc3sc(NC(=O)CC#N)nc3c2)C(=O)O1 (stereo not drawn) [Example 45]	40	10	
COCC1CN(c2ccc3sc(C(O)CCC#N)nc3c2)C(=O)O1 (stereo not drawn) [Example 46]	7	3	
COCC1CN(c2ccc3sc(CCCC#N)nc3c2)C(=O)O1 (stereo not drawn) [Example 47]	52	9	

Further lines, with some results ahead:

inhibition at 0.1 µM (MAO-A) [%]	inhibition at 1 µM (MAO-B) [%]	Compound	other results
	13	COCC1CN(c2ccc3nc(CNCC#N)sc3c2)C(=O)O1 (stereo not drawn) [Example 4, 3-[(2-Cyanomethylaminomethylbenzothiazol)-6-yl]-5-methoxymethyl-2-oxazolidinone]	IC50 (MAO-A): 0.039 µM
87	13	COC[C@H]1CN(c2ccc3nc([C@@H](O)CCC#N)sc3c2)C(=O)O1 [Example 9, 3-[2-(1(S)-Hydroxy-3-cyanopropyl)benzothiazol-6-yl]-5(R)-methoxymethyl-2-oxazolidinone]	
71	17	COC[C@H]1CN(c2ccc3nc(CCCC#N)sc3c2)C(=O)O1 [Example 16]	
24	9	COC[C@@H]1CN(c2ccc3nc(CCCC#N)sc3c2)C(=O)O1 [Example 17]	
15	14	COCC1CN(c2ccc3nc(CCCCC#N)sc3c2)C(=O)O1 (stereo not drawn) [Example 20]	
10	8	COCC1CN(c2ccc3nc(/C=C/CCC#N)sc3c2)C(=O)O1 (stereo not drawn) [Example 21]	
75	7	COC[C@@H]1CN(c2ccc3nc(CCCCC#N)sc3c2)C(=O)O1 [Example 22]	
73	7	COC[C@H]1CN(c2ccc3nc(C(C)(C)CCC#N)sc3c2)C(=O)O1 [Example 25]	
54	12	COCC1CN(c2ccc3nc(C(=O)CCC#N)sc3c2)C(=O)O1 (stereo not drawn) [Example 31]	
23	7	COCC1CN(c2ccc3nc(NCCC#N)sc3c2)C(=O)O1 (stereo not drawn) [Example 32]	
27		COCC1CN(c2ccc3nc(C(O)CCC#N)sc3c2)C(=O)O1 (stereo not drawn) [Example 35]	Inhibiting activity MAO-B (% at 10^-6 M) (MAO-B): 0%
	1	COCC1CN(c2ccc3nc(C(C)(O)CCC#N)sc3c2)C(=O)O1 (stereo not drawn) [Example 36]	IC50 (MAO-A): 0.0068 µM
32	11	COCC1CN(c2ccc3nc(C(CCC#N)=NO)sc3c2)C(=O)O1 (stereo not drawn) [Example 38]	
15	2	COCC1CN(c2ccc3nc(C(CCC#N)=NOC)sc3c2)C(=O)O1 (stereo not drawn) [Example 39]	
9	3	COCC1CN(c2ccc3nc(C(N)CCC#N)sc3c2)C(=O)O1 (stereo not drawn) [Example 41]	
	14	COCC1CN(c2ccc3nc(N(CCC#N)CCC#N)sc3c2)C(=O)O1 (stereo not drawn) [Example 43]	inhibition at 1 µM (MAO-A; 10^-6 M, read-out: Inhibiting activity MAO-A (at 10^-6 M)): 87%

Reference: patent US5475014A, “Oxazolidone derivative” (Eisai Co., Ltd., priority 1991, dated 1995)
